Patent US20220386611A1, “NOVEL HETEROARYL-TRIAZOLE COMPOUNDS AS PESTICIDES” (Bayer Aktiengesellschaft, priority 2019, published 2022)

How the values were obtained:
Type in all cases: in vivo
[1] = tested on: adult cat fleas (Ctenocephalides felis); experiment: Ctenocephalides felis in-vitro contact test, adult cat flea; conditions: after 48 hours, read-out: efficacy (fleas dead or moribund); for pest or weed control at 5 µg/cm2, 500 g/ha: 5 μg/cm^2 (=500 g/ha)
Description: (§1) Ctenocephalides felis—In-Vitro Contact Tests Adult Cat Flea 9 mg compound is solved in 1 mL acetone and diluted with acetone to the desired concentration. 250 μL of the test solution is filled in 25 mL glass test tubes and homogeneously distributed on the inner walls by rotation and tilting on a shaking device (2 h at 30 rpm). With a compound concentration of 900 ppm, an inner surface of 44.7 cm^2 and a homogeneous distribution, a dose of 5 μg/cm^2 is achieved.
After the solvent has evaporated, each test tube is filled with 5-10 adult cat fleas (Ctenocephalidesfelis), closed with a perforated lid and incubated in a lying position at room temperature and relative humidity.
(§2) After 48 hours efficacy is determined. The fleas are patted on the ground of the tubes and are incubated on a heating plate at 45-50° C. for at most 5 minutes. Immotile or uncoordinated moving fleas, which are not able to escape the heat by climbing upwards, are marked as dead or moribund.
An efficacy of 100% means all fleas are dead or moribund; 0% means no fleas are dead or moribund.

[2] = tested on: adult brown dog ticks (Rhipicephalus sanguineus); experiment: Rhipicephalus sanguineus in-vitro contact test with adult brown dog ticks; conditions: 5 μg/cm^2 (=500 g/ha), after 48 hours, read-out: efficacy (ticks dead or moribund)
Description: Rhipicephalus sanguineus—In-Vitro Contact Tests with Adult Brown Dog Ticks
as §1, with “9” for “Ctenocephalides felis—In-Vitro Contact Tests Adult Cat Flea 9”
as §2, with “After the solvent has evaporated, each test tube is filled with 5-10 adult brown dog ticks (Rhipicephalus sanguineus), closed with a perforated lid and incubated in a lying position at room temperature and relative humidity. After” for “After”, “ticks” for “fleas”, “ticks,” for “fleas,”
An efficacy of 100% means all ticks are dead or moribund; 0% means no ticks are dead or moribund.

[3] = tested on: adult engorged female ticks (Rhipicephalus microplus); experiment: Rhipicephalus (Boophilus) microplus injection test; conditions: 168 h, after 7 days, read-out: efficacy (infertile eggs); for pest or weed control at 0.004 mg: 4 μg/animal; for pest or weed control at 0.02 mg: 20 μg/animal
Description: Rhipicephalus (Boophilus) microplus—Injection Test
(§3) Solvent: dimethyl sulfoxide
To produce a suitable preparation of active compound, 10 mg of active compound are dissolved in 0.5 mL solvent, and the concentrate is diluted with solvent to the desired concentration.
Five adult engorged female ticks (Rhipicephalus microplus) are injected with 1 μL compound solution into the abdomen. The ticks are transferred into replica plates and incubated in a climate chamber.
After 7 days egg deposition of fertile eggs is monitored. Eggs where fertility is not visible are stored in a climate chamber till hatching after about 42 days. An efficacy of 100% means all eggs are infertile; 0% means all eggs are fertile.

[4] = tested on: green peach aphid (Myzus persicae); experiment: Myzus persicae spray test; conditions: foliar, 120 h, after 5 days, Chinese cabbage leaf disks
Description: Myzus persicae—spray test
(§4) Solvent: 78.0 parts by weight acetone • 1.5 parts by weight dimethylformamide
(§5) Emulsifier: alkylarylpolyglycol ether
(§6) To produce a suitable preparation of active compound, 1 part by weight of active compound is mixed with the stated amount of solvents and is diluted with water, containing an emulsifier concentration of 1000 ppm, to the desired concentration. Further test concentrations are prepared by dilution with emulsifier containing water.
Chinese cabbage (Brassica pekinensis) leaf disks infected with all instars of the green peach aphid (Myzus persicae), are sprayed with a preparation of the active ingredient of the desired concentration.
(§7) After 5 days mortality in % is determined. 100% means all aphids have been killed and 0% means none of the aphids have been killed.

[5] = tested on: larvae of the banded cucumber beetle (Diabrotica balteata); experiment: Diabrotica balteata spray test; conditions: 168 h, 100 g/ha (=32 μg/well), after 7 days, wheat seeds, read-out: efficacy (seedlings grown like untreated, uninfected control)
Description: Diabrotica balteata—spray test
Solvent: 78.0 parts by weight of acetone
1.5 parts by weight of dimethylformamide
as §5
as §6, with “solvent,” for “solvents”, “and the concentrate” for “and”
Soaked wheat seeds (Triticum aestivum) are placed in a multiple well plate filled with agar and some water and are incubated for 1 day to germinate (5 seeds per well). The germinated wheat seeds are sprayed with a test solution containing the desired concentration of the active ingredient. Afterwards each unit is infected with 10-20 larvae of the banded cucumber beetle (Diabrotica balteata).
After 7 days efficacy in % is determined. 100% means all the seedlings have grown up like in the untreated, uninfected control; 0% means none of the seedlings have grown.

[6] = tested on: Rhipicephalus microplus larvae (strain Parkhurst, resistant against synthetic pyrethroids); experiment: Rhipicephalus (Boophilus) microplus in-vitro contact test, larval cattle tick; conditions: 5 μg/cm^2 (=500 g/ha), after 48 hours, read-out: efficacy (larvae dead or moribund)
Description: Rhipicephalus (Boophilus) Microplus—In-Vitro Contact Tests Larval Cattle Tick (Strain Parkhurst, Resistant Against Synthetic Pyrethroids)
as §1, with “9” for “Ctenocephalides felis—In-Vitro Contact Tests Adult Cat Flea 9”
After the solvent has evaporated, each test tube is filled with 20-50 cattle tick larvae (Rhipicephalus microplus), closed with a perforated lid and incubated in a horizontal position at 85% relative humidity and 27° C. in an incubator. After 48 hours efficacy is determined. The larvae are patted on the ground of the tubes and negative geotactic behaviour is recorded.
An efficacy of 100% means all larvae are dead or moribund; 0% means no larvae are dead or moribund.

[7] = tested on: green peach aphid (Myzus persicae); experiment: Myzus persicae oral test; conditions: 120 h
Description: Solvent: 100 parts by weight acetone
To produce a suitable preparation of active compound, 1 part by weight of active compound is mixed with the stated amount of solvent, and the concentrate is diluted with water to the desired concentration. 50 μL compound solution is filled in microtiter plates and 150 μL IPL41 insect medium (33%+15% sugar) is added to obtain a total volume of 200 μL per well. Afterwards the plates are sealed with parafilm through which a mixed population of the green peach aphid (Myzus persicae) can suck on the compound preparation.
as §7

[8] = tested on: adult unfed cat fleas (Ctenocephalides felis); experiment: Ctenocephalides felis oral test; conditions: 48 h
Description: Ctenocephalides felis—Oral Test
as §3
To produce a suitable preparation of active compound, 10 mg of active compound are dissolved in 0.5 ml solvent, and the concentrate is diluted with cattle blood to the desired concentration.
Approximately 20 adult unfed cat fleas (Ctenocephalides felis) are placed in flea chambers. The blood chamber, sealed with parafilm on the bottom, are filled with cattle blood supplied with compound solution and placed on the gauze covered top of the flea chamber, so that the fleas are able to suck the blood. The blood chamber is heated to 37° C. whereas the flea chamber is kept at room temperature.
After 2 days mortality in % is determined. 100% means all the fleas have been killed; 0% means none of the fleas have been killed.

[9] = tested on: fall armyworm larvae (Spodoptera frugiperda); experiment: Spodoptera frugiperda spray test; conditions: in Zea mays, 168 h
Description: Spodoptera frukiperda—Spray Test
as §4, §5, §6
Maize (Zea mays) leaf sections are sprayed with a preparation of the active ingredient of the desired concentration. Once dry, the leaf sections are infested with fall armyworm larvae (Spodoptera frugiperda).
After 7 days mortality in % is determined. 100% means all caterpillars have been killed and 0% means none of the caterpillars have been killed.

[10] = tested on: Musca domestica strain WHO-N; experiment: Musca domestica test (MUSCDO surface treatment & contact assay); conditions: surface concentration 20 mg/m^2, 30 minutes exposure, 24 hours after contact, read-out: efficacy (mortality)
Description: Musca domestica Test (MUSCDO Surface Treatment & Contact Assay)
(§8) Solvent: Aceton+2000 ppm rapeseed oil methyl ester (RME)
(§9) In order to produce a sufficient, active ingredient containing solution it is necessary to solve the test compound in the solvent-mix (acetone at 2 mg/ml/RME 2000 ppm). This solution is pipetted onto a glazed tile and after evaporation of the acetone, adult flies of the species Musca domestica strain WHO-N are placed onto the dried surface. The exposure time is 30 minutes. Mortality in percent (%) is determined 24 hours after contact of the insects to the treated surface. 100% mortality means that all tested insects are dead, whereas 0% means that no insect died.

[11] = tested on: Aedes aegypti strain MONHEIM; experiment: Aedes aegypti test (AEDSAE surface treatment & contact assay); conditions: 24 hours after contact, read-out: efficacy (mortality)
Description: Aedes Aegypti Test (AEDSAE Surface Treatment & Contact Assay)
as §8
as §9, with “mosquitoes” for “flies”, “Aedes aegypti” for “Musca domestica”, “MONHEIM” for “WHO-N”

CC(NC(=O)c1cc(Br)cc(C(F)(F)F)c1)c1nc(Br)nn1-c1ncccn1 (racemic) [Example I-009, 3-bromo-N-[1-(5-bromo-2-pyrimidin-2-yl-1,2,4-triazol-3-yl)ethyl]-5-(trifluoromethyl)benzamide]
pest or weed control at 5 µg/cm2, 500 g/ha [1]: 80%
pest or weed control at 5 µg/cm2, 500 g/ha [2]: 100%
pest or weed control at 0.004 mg [3]: 100%
mortality at 100 g/ha [4]: 70%
pest or weed control at 32 µg/disc, 100 g/ha [5]: 100%
pest or weed control at 5 µg/cm2 [6]: 100%
mortality at 4 ppm [7]: 100%
mortality at 100 ppm [8]: 100%
mortality at 100 g/ha [9]: 67%

CC(NC(=O)c1cc(Cl)cc(C(F)(F)F)c1)c1nc(Cl)nn1-c1ccc(Cl)cn1 (racemic) [Example I-017, 3-chloro-N-[1-[5-chloro-2-(5-chloro-2-pyridyl)-1,2,4-triazol-3-yl]ethyl]-5-(trifluoromethyl)benzamide]
pest or weed control at 0.004 mg [3]: 100%
pest or weed control at 0.02 mg [3]: 100%
pest or weed control at 32 µg/disc, 100 g/ha [5]: 100%
pest or weed control at 5 µg/cm2 [6]: 100%
mortality at 100 g/ha [9]: 83%

CC(NC(=O)c1cc(Cl)cc(C(F)(F)F)c1)c1nc(I)nn1-c1ccc(Cl)cn1 (racemic) [Example I-019, 3-chloro-N-[1-[2-(5-chloro-2-pyridyl)-5-iodo-1,2,4-triazol-3-yl]ethyl]-5-(trifluoromethyl)benzamide]
mortality at 20 mg/m2 [10]: 80 to 100%
pest or weed control at 0.004 mg [3]: 100%
pest or weed control at 0.02 mg [3]: 100%
pest or weed control at 32 µg/disc, 100 g/ha [5]: 100%
pest or weed control at 5 µg/cm2 [6]: 90%
mortality at 100 g/ha [9]: 100%

CC(NC(=O)c1cc(Br)cc(OC(F)(F)F)c1)c1nc(I)nn1-c1ncccn1 (racemic) [Example I-020, 3-bromo-N-[1-(5-iodo-2-pyrimidin-2-yl-1,2,4-triazol-3-yl)ethyl]-5-(trifluoromethoxy)benzamide]
pest or weed control at 1 µg/cm2, 100 g/ha ([1]; 1 μg/cm^2 (=100 g/ha)): 100%
pest or weed control at 5 µg/cm2, 500 g/ha [1]: 100%
pest or weed control at 5 µg/cm2, 500 g/ha [2]: 100%
mortality at 100 g/ha [4]: 90%
pest or weed control at 32 µg/disc, 100 g/ha [5]: 100%
pest or weed control at 5 µg/cm2 [6]: 100%
mortality at 4 ppm [7]: 100%
mortality at 100 ppm [8]: 100%
mortality at 100 g/ha [9]: 100%

CC(NC(=O)c1cc(Cl)cc(C(F)(F)F)c1)c1nc(Cl)nn1-c1ncccn1 (stereo not shown) [Example I-004]
pest or weed control at 5 µg/cm2, 500 g/ha [2]: 100%
pest or weed control at 0.004 mg [3]: 100%
pest or weed control at 0.02 mg [3]: 100%
pest or weed control at 32 µg/disc, 100 g/ha [5]: 100%
pest or weed control at 5 µg/cm2 [6]: 100%
mortality at 4 ppm [7]: 100%
mortality at 100 ppm [8]: 90%
mortality at 4 mg/m2 ([11]; surface concentration 4 mg/m^2, 30 minutes exposure): 80 to 100%
mortality at 20 mg/m2 ([11]; surface concentration 20 mg/m^2, 30 minutes exposure): 80 to 100%
mortality at 100 g/ha [9]: 100%

CC(NC(=O)c1cc(Cl)cc(Cl)c1)c1nc(Cl)nn1-c1ncccn1 (stereo not shown) [Example I-005]
pest or weed control at 5 µg/cm2, 500 g/ha [2]: 100%
pest or weed control at 0.004 mg [3]: 100%
pest or weed control at 0.02 mg [3]: 100%
pest or weed control at 32 µg/disc, 100 g/ha [5]: 100%
mortality at 100 ppm [8]: 100%
mortality at 100 g/ha [9]: 100%

CC(NC(=O)c1cc(Cl)nc(Cl)c1)c1nc(Cl)nn1-c1ncccn1 (stereo not shown) [Example I-006]
pest or weed control at 5 µg/cm2, 500 g/ha [1]: 100%
pest or weed control at 5 µg/cm2, 500 g/ha [2]: 80%
pest or weed control at 0.004 mg [3]: 80%
mortality at 100 g/ha [4]: 90%
pest or weed control at 32 µg/disc, 100 g/ha [5]: 100%
pest or weed control at 5 µg/cm2 [6]: 100%
mortality at 4 ppm [7]: 90%
mortality at 100 ppm [8]: 100%

CC(NC(=O)c1cncc(C(F)(F)F)c1)c1nc(Br)nn1-c1ncccn1 (stereo not shown) [Example I-015]
pest or weed control at 0.004 mg [3]: 100%
pest or weed control at 32 µg/disc, 100 g/ha [5]: 80%
pest or weed control at 5 µg/cm2 [6]: 100%
mortality at 100 ppm [8]: 100%

CC(NC(=O)c1cc(Br)cc(C(F)(F)F)c1)c1nc(I)nn1-c1ncccn1 (stereo not shown) [Example I-022]
pest or weed control at 5 µg/cm2, 500 g/ha [2]: 80%
pest or weed control at 32 µg/disc, 100 g/ha [5]: 100%
pest or weed control at 5 µg/cm2 [6]: 100%
mortality at 4 ppm [7]: 100%
mortality at 100 ppm [8]: 90%
mortality at 100 g/ha [9]: 100%

CC(NC(=O)c1cc(Br)cc(Br)c1)c1nc(I)nn1-c1ncccn1 (stereo not shown) [Example I-023]
mortality at 100 ppm [8]: 100%
